Reference: patent US10190093B2, “Artificial oocyte activation” (The Curators of the University of Missouri, priority 2013, dated 2019)
Where “and” joins values, the source holds several entries; their conditions need not be identical. Identical values can stand only once. Entries after “also recorded” stand apart in the source; their conditions may differ. Marks after values point to notes of the source that are not given here.

Key:
[1] = test system: activated porcine oocytes; test: Treatment of chemically (THI/DTT) activated oocytes with TPEN, parthenogenetic embryo development; format: cell-based, pig
Experimental: Oocytes were obtained from either pre-pubertal gilt ovaries from an abattoir (Farmland Foods Inc., Milan, Mo.), or sow-derived oocytes that were purchased from Applied Reproductive Technology (Madison, Wis.). Immature oocytes from gilt ovaries were aspirated from medium size (3-6 mm) follicles by using an 18 gauge hypodermic needle attached to a 10 mL syringe. Oocytes with evenly dark cytoplasm and intact surrounding cumulus cells were then selected for maturation. Around 50 cumulus oocyte complexes were place in a well containing 500 μL of maturation medium, TCM 199 (Invitrogen, Grand Island, N.Y.) with 3.05 mM glucose, 0.91 mM sodium pyruvate, 0.57 mM cysteine, 10 ng/mL epidermal growth factor (EGF), 0.5 mg/mL luteinizing hormone (LH), 0.5 mg/mL follicle stimulating hormone (FSH), 10 ng/mL gentamicin (APP Pharm, Schaumburg, Ill.), and 0.1% polyvinyl alcohol (PVA) for 42-44 hr at 38.5° C., 5% CO2, in humidified air. […] At the end of the maturation, the surrounding cumulus cells were removed from the oocytes by vortexing for 3 min in the presence of 0.1% hyaluronidase. Oocytes with a visible polar body were selected in manipulation medium (TCM199 with 0.6 mM NaHCO3, 2.9 mM Hepes, 30 mM NaCl, 10 ng/mL gentamicin, and 3 mg/mL bovine serum albumin [BSA]; and osmolarity of 305) and then used for the experiments. Different oocyte activation methods were used for the experiments. As conventional activation methods, either electrical or chemical activation was used. For electrical activation, mature oocytes were activated in activation medium (0.3 M mannitol, 1.0 mM CaCl2, 0.1 mM MgCl2, and 0.5 mM Hepes) by two direct-current (DC) pulses (1-sec interval) at 1.2 kV/cm for 30 μsec (using BTX Electro Cell Manipulator, Harvard Apparatus, Holliston, Mass.). […] For TPEN mediated activation, mature oocytes were incubated in TL-Hepes media with various concentrations of TPEN for different durations. […] At the end of the culture, where applicable, the frequency of cleaved embryos and blastocysts, and total cell number in the blastocysts were recorded. Hoechst 33342 (1.2 mg/mL) was used to stain nuclei and the embryos were then evaluated by epi-fluorescence microscopy. Treatment of activated oocytes with TPEN was investigated for the potential to increase the efficiency of oocyte activation. […] It was hypothesized that the detrimental effect was due to excess stimuli from Ca^2+ signaling and TPEN. Therefore, lower concentrations of TPEN were introduced after activating oocytes with a conventional method. Incubating activated oocytes with a lower concentration of TPEN increased developmental potential of parthenogenetic embryos.

SCNT embryos = test: TPEN activation method on the development of SCNT embryos; format: cell-based, pig; conditions: SCNT embryos activated with TPEN (200 μM, 30 min) as major activating reagent
Experimental: At the end of the culture, where applicable, the frequency of cleaved embryos and blastocysts, and total cell number in the blastocysts were recorded. Hoechst 33342 (1.2 mg/mL) was used to stain nuclei and the embryos were then evaluated by epi-fluorescence microscopy. Additionally, the effect of the TPEN activation method alone on the development of SCNT embryos was tested.

MII oocytes = test: Intracellular calcium measurement (fura-2); format: cell-based, pig; conditions: oocytes exposed to TPEN 5, 10, and 200 μM
Experimental: The zonae pellucidae were removed after maturation and zona-free oocytes were loaded with the Ca^2+ indicator dye, fura-2. For this purpose, they were incubated in the presence of […] of the acetoxymethyl ester form of the dye and 0.02% pluronic F-127 for 40-50 min (both from Invitrogen). The dye loaded oocytes were transferred into a chamber with a cover-glass bottom and the chamber was then placed on the heated stage of an inverted microscope. Changes in the intracellular free Ca^2+ concentration were recorded using InCytIm2, a dual-wavelength fluorescence imaging system (Intracellular Imaging, Inc.; Cincinnati, Ohio). During measurements the emitted fluorescence was detected at 510 nm after exciting the dye alternately at 340 and 380 nm. The ratio of the two emitted fluorescence intensities was calculated and the data are presented as fluorescence ratio values. Ratios of 1.0 and 5.0 correspond to about 100 and 1,200 nM Ca^2+, respectively. In each treatment group the measurements were repeated at least 5 times using different oocytes.

[2] = test system: SCNT embryos transferred into surrogate gilt; test: Embryo transfer, in vivo development competence of SCNT embryos
Experimental: To address in vivo competency of SCNT embryos activated by utilizing TPEN, a series of embryo transfers were performed. For the study, at day 1, the SCNT-derived embryos were surgically transferred into the ampullary-isthmic junction of a surrogate gilt at 0 or 1 days after observed estrus. At the end of gestation periods, piglets were recovered through C-section.
Six embryo transfers were performed for the study and two surrogates carried their pregnancy to term, each resulting in two healthy piglets (Table 6). One of the term development was from SCNT embryos that were not treated with a HDAC inhibitor, Scriptaid.

With `c1ccc(CN(CCN(Cc2ccccn2)Cc2ccccn2)Cc2ccccn2)nc1` [TPEN, N,N,N′,N′-tetrakis(2-pyridylmethyl)ethane-1,2-diamine] the “% blastocysts” value ([1]; THI/DTT + 5 μM TPEN, 30 min) was 27.2±1.7% and 27.2^b %, the “% cleaved” value ([1]; THI/DTT + 5 μM TPEN, 30 min) was 74.6^b % and the “Total cell number in blastocysts” value ([1]; THI/DTT + 5 μM TPEN, 30 min) was 33.1 ± 2.6^b. The “% blastocysts” value ([1]; THI/DTT + 10 μM TPEN, 10 min) was 21.7^b %, the “% cleaved” value ([1]; THI/DTT + 10 μM TPEN, 10 min) was 81.9^b % and the “Total cell number in blastocysts” value ([1]; THI/DTT + 10 μM TPEN, 10 min) was 31.2 ± 2.6^b. For the same molecule, the blastocyst formation ([1]; chemically activated oocytes incubated with TPEN 100 μM, 45 min) was “no blastocyst formation was observed”, the “Day 6 blastocyst formation” value (SCNT embryos) was 25.8% (8/31) and the “Day 7 blastocyst formation” value (SCNT embryos) was 35.5% (11/31). The “intracellular Ca2+ increase” value (MII oocytes) was “does not induce a Ca^2+ increase; also recorded: no Ca^2+ increase was detected”, the “Result of embryo transfer” value ([2]; SCNT + 5 μM TPEN, 30 min + Scriptaid) was 2 normal piglets were and Cycled and the “Result of embryo transfer” value ([2]; SCNT + 5 μM TPEN, 30 min, no Scriptaid) was 2 normal piglets were and Cycled. For the same molecule, the “Result of embryo transfer” value ([2]; SCNT + 10 μM TPEN, 10 min + Scriptaid) was “Cycled” and the “toxicity to SCNT embryos, full term development” value ([2]; embryo transfers of TPEN treated SCNT embryos) was “not toxic to the SCNT embryos”.
